Tests used:
TNF-α [1] = test: TNF-α level in THP1 cell line differentiated by PMA (ELISA); type: cell-based, human; conditions: THP-1 differentiated by PMA, 1 μM peptide 1 hour; for reduction of TNF-α level compared to control group treated only with LPS: LPS 10 ng/ml 2 hours; for reduction of expression level of TNF-α compared to group treated with LPS and estrogen: LPS 10 ng/ml
Procedure: Experiment was carried out using THP-1 cell line (American Type Culture Collection (ATCC), Manassas, Va., USA) which is human acute monocytic leukemia.
THP-1 cells were incubated to reach the number of 1×10^5 cells per well in a 96-well plate with RPMI 1640 medium for 24 hrs, followed by addition of […] of PMA (phorbol 12-myristate 13-acetate) for the differentiation into macrophage. After differentiation of THP-1 into macrophage by PMA for a day, LPS was treated for 2 hrs and washed off. Starvation for an hour and PEP1 treatment followed.
THP-1 cell differentiated by PMA was treated with LPS (lipopolysaccharide; 10 ng/ml, Sigma) for 2 hours, followed by 2 times washes with PBS. To the cells, OPTI-MEM culture medium was added to induce cell starvation for an hour, and 1 μM of 161 peptides was taken out and incubated for an hour. After incubation, TNF-α level was measured by using the ELISA kit and the peptides which reduce the TNF-α level were screened (FIG. 17 to FIG. 35).

TNF-α [2] = test: TNF-α inhibitory effect in PBMC-derived monocyte (ELISA); type: cell-based, human; conditions: PBMC-derived monocytes, 4 μM peptide 2 hrs; for TNF-α inhibiting effect compared to the control group treated with only LPS: LPS 10 ng/ml 2 hours; for TNF-α inhibiting effect compared to the group treated with LPS and estrogen: LPS 10 ng/ml, estrogen 20 nM
Procedure: PBMC (peripheral blood mononuclear cells) layer was separated from blood samples (50 ml) collected in healthy subjects using Biocoll Separating Solution (Biochrom AG, Berlin, Germany). The collected PBMC were enriched in RPMI 1640 medium containing 20% human serum for 30 mins, and then transferred to 100-mm polystyeren cell culture plate coated with human serum for incubation for 2 hrs at 37° C., 5% CO^2 incubator. Monocytes were detached from the bottom of the plate using cold PBS, and incubated to reach the number of 1×10^5 cell/well in 96-well plate with RPMI 1640 medium (supplemented with penicillin-streptomycin; 100 mg/ml, human serum; 20%) over night.
ELISA was performed to find out how the peptides of the PEP RIA series influence TNF-α level. PBMC-derived monocytes were incubated to reach the number of 1×10^5 cells per well in a 96-well plate and then treated with LPS (lipopolysaccharide; 10 ng/ml, Sigma) for 2 hours. To the monocytes that were washed three times with PBS, OPTI-MEM culture medium was added to induce cell starvation for an hour, 4 μM of the peptide was taken out and incubated for 2 hours. There were three negative control groups. The first group was not treated with anything. The second group that was treated with estrogen (in this experiment, estradiol was used as a kind of estrogen). The third group was treated with LPS (10 ng/ml) or with LPS (10 ng/ml) as well as estrogen (20 nM). PEP1 that was confirmed to have TNF-α inhibiting activity was used as a positive control to measure TNF-α inhibiting activity. After incubation, TNF-α was measured by following the ELISA kit manual (R&D, Minneapolis, Minn., USA). The details of quantification method can be found in Experiment 2.2 of Example 1.
Using the method stated above, Peptides with TNF-α inhibiting effect were screened. PBMC-derived monocytes were stimulated with LPS (10 ng/ml), which is endotoxin, for 2 hours and were induced to starve by adding OPTI-MEM for 1 hour. After that, 4 μM of 161 peptides were treated and incubated for 2 hrs. The amount of TNF-α in the cell culture medium was measured using ELISA, and the peptides with TNF-α inhibiting effect were screened by comparing to the negative and positive controls (FIG. 1 to FIG. 16).

Row | Sequence | reduction of TNF-α level compared to control group treated only with LPS (TNF-α [1]) | reduction of expression level of TNF-α compared to group treated with LPS and estrogen (TNF-α [1]) | TNF-α inhibiting effect compared to the control group treated with only LPS (TNF-α [2]) | TNF-α inhibiting effect compared to the group treated with LPS and estrogen (TNF-α [2])
1 | AERLTSRVKALFSVL (listed as Homo sapiens) [SEQ ID NO: 9] | appeared to reduce the TNF-α level | reduce the expression level of TNF-α | showed TNF-α inhibiting effect | –
2 | AQCPYGVLLKTHCPLRAAVT (listed as Homo sapiens) [SEQ ID NO: 68] | appeared to reduce the TNF-α level | – | – | –
3 | CGPPLYQLGAATQARPPPHA (listed as Homo sapiens) [SEQ ID NO: 114] | appeared to reduce the TNF-α level | – | – | –
4 | DEALGGTAFVQMPAHGLFPW (listed as Homo sapiens) [SEQ ID NO: 151] | appeared to reduce the TNF-α level | – | – | –
5 | EDTDPRRLVQLLRQHSSPWQ (listed as Homo sapiens) [SEQ ID NO: 70] | appeared to reduce the TNF-α level | – | – | showed TNF-α inhibiting effect
6 | FFLRVISDTASLCYSILKAK (listed as Homo sapiens) [SEQ ID NO: 157] | – | reduce the expression level of TNF-α | – | –
7 | FHQQVWKNPTFFLRVISDTA (listed as Homo sapiens) [SEQ ID NO: 99] | – | – | – | showed TNF-α inhibiting effect
8 | GASVLGLDDI (listed as Homo sapiens) [SEQ ID NO: 13] | appeared to reduce the TNF-α level | reduce the expression level of TNF-α | – | –
9 | GLLGASVLG (listed as Homo sapiens) [SEQ ID NO: 29] | appeared to reduce the TNF-α level | reduce the expression level of TNF-α | – | showed TNF-α inhibiting effect
10 | GTRHSHPSVGRQHHAGPPST (listed as Homo sapiens) [SEQ ID NO: 120] | – | – | – | showed TNF-α inhibiting effect
11 | GVPLGLPSPGARRRGGSASR (GVPLGLPAPGARRRGGSASR; listed as Homo sapiens) [SEQ ID NO: 116] | – | – | showed TNF-α inhibiting effect | –
12 | LFSVLNYERARRPGLLGASV (listed as Homo sapiens) [SEQ ID NO: 81] | – | – | – | showed TNF-α inhibiting effect
13 | LGLDDIHRAWRTFVLRVRAQ (listed as Homo sapiens) [SEQ ID NO: 82] | – | – | – | showed TNF-α inhibiting effect
14 | LKRVQLRELSEAEVRQ (listed as Homo sapiens) [SEQ ID NO: 47] | – | – | – | showed TNF-α inhibiting effect
15 | LLGASVLGL (listed as Homo sapiens) [SEQ ID NO: 11] | – | – | showed TNF-α inhibiting effect | –
16 | LLVTPHLTHAKTFLRTLVRG (listed as Homo sapiens) [SEQ ID NO: 149] | appeared to reduce the TNF-α level | – | showed TNF-α inhibiting effect | showed TNF-α inhibiting effect
17 | MPRAPRCRAVRSLLRSHYRE (listed as Homo sapiens) [SEQ ID NO: 48] | – | – | – | showed TNF-α inhibiting effect

Row | Sequence | reduction of TNF-α level compared to control group treated only with LPS (TNF-α [1]) | reduction of expression level of TNF-α compared to group treated with LPS and estrogen (TNF-α [1]) | TNF-α inhibiting effect compared to the control group treated with only LPS (TNF-α [2]) | TNF-α inhibiting effect compared to the group treated with LPS and estrogen (TNF-α [2])
18 | NKLFAGIRRDGLLLRLVDDF (listed as Homo sapiens) [SEQ ID NO: 148] | appeared to reduce the TNF-α level | – | showed TNF-α inhibiting effect | showed TNF-α inhibiting effect
19 | NRGFKAGRNMRRKLFGVLRL (listed as Homo sapiens) [SEQ ID NO: 96] | – | – | showed TNF-α inhibiting effect | showed TNF-α inhibiting effect
20 | QMPAHGLFPWCGLLLDTRTL (listed as Homo sapiens) [SEQ ID NO: 94] | appeared to reduce the TNF-α level | – | – | –
21 | QWLCHQAFLLKLTRHRVTTV (QWLCHQAFLLKLTRHRVTYV; listed as Homo sapiens) [SEQ ID NO: 159] | – | reduce the expression level of TNF-α | – | –
22 | RFHACVLQLPFHQQVWKNPT (listed as Homo sapiens) [SEQ ID NO: 156] | – | reduce the expression level of TNF-α | – | –
23 | RFMCHHAVRIRGKSYVQCQG (listed as Homo sapiens) [SEQ ID NO: 146] | appeared to reduce the TNF-α level | – | showed TNF-α inhibiting effect | showed TNF-α inhibiting effect
24 | RLPQRYWQMRPLFLELLGNH (listed as Homo sapiens) [SEQ ID NO: 67] | appeared to reduce the TNF-α level | – | – | –
25 | RTFVLRVRAQDPPPE (listed as Homo sapiens) [SEQ ID NO: 7] | appeared to reduce the TNF-α level | reduce the expression level of TNF-α | – | –
26 | RTRGPSDRGFCVVSPARPAE (listed as Homo sapiens) [SEQ ID NO: 61] | – | – | – | showed TNF-α inhibiting effect
27 | SGPRRRLGCERAWMHSVREA (SGPRRRLGCERAWNHSVREA; listed as Homo sapiens) [SEQ ID NO: 115] | – | – | showed TNF-α inhibiting effect | –
28 | SRPPRPWDTPCPPVYAETKH (listed as Homo sapiens) [SEQ ID NO: 121] | – | – | – | showed TNF-α inhibiting effect
29 | SVLGLDDIH (listed as Homo sapiens) [SEQ ID NO: 30] | appeared to reduce the TNF-α level | reduce the expression level of TNF-α | – | –
30 | SVLNYERARR (listed as Homo sapiens) [SEQ ID NO: 15] | appeared to reduce the TNF-α level | reduce the expression level of TNF-α | – | –
31 | VLGLDDIHRA (listed as Homo sapiens) [SEQ ID NO: 12] | appeared to reduce the TNF-α level | reduce the expression level of TNF-α | – | –
32 | WMPGTPRRLPRLPQRYWQMR (listed as Homo sapiens) [SEQ ID NO: 124] | – | – | showed TNF-α inhibiting effect | –
33 | YERARRPGL (listed as Homo sapiens) [SEQ ID NO: 10] | appeared to reduce the TNF-α level | reduce the expression level of TNF-α | – | –

Reference: US11098294B2, “Anti-inflammatory peptides and composition comprising same” (GemVax & KAEL Co., Ltd., priority 2012, dated 2021)
